From patent US20260256792A1, “TREATMENT OF CHRONIC SPONTANEOUS URTICARIA BY ADMINISTERING (R)-2-[3-[4-AMINO-3-(2-FLUORO-4-PHENOXY-PHENYL)PYRAZOLO[3,4-D]PYRIMIDIN-1-YL]PIPERIDINE-1-CARBONYL]-4-METHYL-4-[4-(OXETAN-3-YL)PIPERAZIN-1-YL]PENT-2-ENENITRILE” (priority 2023, published 2026)

System: moderate-to-severe chronic spontaneous urticaria (CSU)
Test: Phase 2 CSU study: hives severity score over 7 days (HSS7)
Assay type: in vivo, human
Design: key to HSS7 Change from baseline, Median / HSS7, Median / HSS7, Max / HSS7 Change from baseline, Q1 / HSS7 Change from baseline, Q3 / HSS7 Change from baseline, Max: 7-day sum of daily hive scores, each 0 = none to 3 = >50 hives
Description: The study comprises a 12 week, randomized, double-blind, placebo-controlled, multi-center, dose-ranging efficacy and safety phase, followed by a 40 week open label extension (OLE) phase (see FIG. 1).
The study consists of three phases and an optional OLE phase.
The UAS is a validated PRO measure. The daily UAS is the sum of the daily Hive Severity Score (HSS, ranging from 0=None to 3=more than 50 hives) and the daily Itch Severity Score (ISS, ranging from 0=None to 3=intense), the 2 key urticaria signs and symptoms which are wheals and itch. The daily UAS scores range from 0 to 6 point/day. Daily UAS scores are summed over 7-day period to create the UAS7, ranging from 0 to 42, and are composed of the HSS7 and ISS7 components. […] Patients were to complete the UAS using the e-diary. The e-diary was to be used once daily on the same time of each day recording of participant's answers to the urticaria activity score over 7 days (UAS7) questionnaire. For participants who entered the OLE phase, their answers to the UAS7 questionnaire were also to be collected from Week 20 to Week24 and from Week 48 to Week 52.
The following secondary endpoints were to be analyzed using the same approach as for the primary endpoint: • Change from baseline in UAS7 at Week 4 • Change from baseline in UAS7 at Week 12 (for US and US reference countries) • Change from baseline in ISS7 at Week 12 (except US and US reference countries) • Change from baseline in HSS7 at Week 12

[1] = Week 10, 400 mg BID, Omalizumab-Naïve Population
[2] = Week 10, 400 mg BID, Patients with Prior Omalizumab Use
[3] = Week 10, 400 mg QPM, Omalizumab-Naïve Population
[4] = Week 10, 400 mg QPM, Patients with Prior Omalizumab Use
[5] = Week 10, 400 mg TID, Omalizumab-Naïve Population
[6] = Week 10, 400 mg TID, Patients with Prior Omalizumab Use
[7] = Week 11, 400 mg BID, Omalizumab-Naïve Population
[8] = Week 11, 400 mg BID, Patients with Prior Omalizumab Use
[9] = Week 11, 400 mg QPM, Omalizumab-Naïve Population
[10] = Week 11, 400 mg QPM, Patients with Prior Omalizumab Use
[11] = Week 11, 400 mg TID, Omalizumab-Naïve Population
[12] = Week 11, 400 mg TID, Patients with Prior Omalizumab Use
[13] = Week 12, 400 mg BID, Omalizumab-Naïve Population
[14] = Week 12, 400 mg BID, Patients with Prior Omalizumab Use
[15] = Week 12, 400 mg QPM, Omalizumab-Naïve Population
[16] = Week 12, 400 mg QPM, Patients with Prior Omalizumab Use
[17] = Week 12, 400 mg TID, Omalizumab-Naïve Population
[18] = Week 12, 400 mg TID, Patients with Prior Omalizumab Use

CC(C)(C=C(C#N)C(=O)N1CCC[C@@H](n2nc(-c3ccc(Oc4ccccc4)cc3F)c3c(N)ncnc32)C1)N1CCN(C2COC2)CC1 [rilzabrutinib, (R)-2-[3-[4-amino-3-(2-fluoro-4-phenoxy-phenyl)pyrazolo[3,4-d]pyrimidin-1-yl]piperidine-1-carbonyl]-4-methyl-4-[4-(oxetan-3-yl)piperazin-1-yl]pent-2-enenitrile]
HSS7, Median [1]: 6.50
HSS7 Change from baseline, Mean (SD) [1]: −6.95 (5.65)
HSS7 Change from baseline, Median [1]: −6.50
HSS7 Percent change from baseline, Mean (SD) [1]: −53.45 (42.56) %
HSS7 Percent change from baseline, Median [1]: −47.73%
HSS7, Mean (SD) [2]: 5.20 (7.19)
HSS7, Median [2]: 2.00
HSS7 Change from baseline, Mean (SD) [2]: −9.60 (9.13)
HSS7 Change from baseline, Median [2]: −12.00
HSS7 Percent change from baseline, Mean (SD) [2]: −58.10 (53.18) %
HSS7 Percent change from baseline, Median [2]: −90.48%
HSS7, Mean (SD) [3]: 9.88 (5.93)
HSS7, Median [3]: 8.00
HSS7 Change from baseline, Mean (SD) [3]: −5.27 (5.66)
HSS7 Change from baseline, Median [3]: −4.00
HSS7 Percent change from baseline, Mean (SD) [3]: −33.86 (34.68) %
HSS7 Percent change from baseline, Median [3]: −28.64%
HSS7, Mean (SD) [4]: 8.00 (NC)
HSS7, Median [4]: 8.00
HSS7 Change from baseline, Mean (SD) [4]: −12.00 (NC)
HSS7 Change from baseline, Median [4]: −12.00
HSS7 Percent change from baseline, Mean (SD) [4]: −60.00 (NC) %
HSS7 Percent change from baseline, Median [4]: −60.00%
HSS7, Mean (SD) [5]: 5.87 (5.06)
HSS7, Median [5]: 4.50
HSS7 Change from baseline, Mean (SD) [5]: −8.20 (5.62)
HSS7 Change from baseline, Median [5]: −9.00
HSS7 Percent change from baseline, Mean (SD) [5]: −57.32 (34.80) %
HSS7 Percent change from baseline, Median [5]: −63.10%
HSS7, Mean (SD) [6]: 3.00 (4.65)
HSS7, Median [6]: 1.00
HSS7 Change from baseline, Mean (SD) [6]: −13.03 (7.21)
HSS7 Change from baseline, Median [6]: −13.00
HSS7 Percent change from baseline, Mean (SD) [6]: −79.31 (25.96) %
HSS7 Percent change from baseline, Median [6]: −91.50%
HSS7, Mean (SD) [7]: 7.13 (7.07)
HSS7, Median [7]: 5.83
HSS7 Change from baseline, Mean (SD) [7]: −7.34 (6.14)
HSS7 Change from baseline, Median [7]: −7.00
HSS7 Percent change from baseline, Mean (SD) [7]: −52.82 (41.27) %
HSS7 Percent change from baseline, Median [7]: −54.55%
HSS7, Mean (SD) [8]: 4.80 (7.46)
HSS7, Median [8]: 0.00
HSS7 Change from baseline, Mean (SD) [8]: −10.00 (9.67)
HSS7 Change from baseline, Median [8]: −12.00
HSS7 Percent change from baseline, Median [8]: −100.00%
HSS7, Mean (SD) [9]: 10.18 (6.18)
HSS7, Median [9]: 9.33
HSS7 Change from baseline, Mean (SD) [9]: −5.18 (5.64)
HSS7 Change from baseline, Median [9]: 3.00
HSS7 Percent change from baseline, Mean (SD) [9]: −33.21 (36.21) %
HSS7 Percent change from baseline, Median [9]: −30.00%
HSS7, Mean (SD) [10]: 9.00 (NC)
HSS7, Median [10]: 9.00
HSS7 Change from baseline, Mean (SD) [10]: −11.00 (NC)
HSS7 Change from baseline, Median [10]: −11.00
HSS7 Percent change from baseline, Mean (SD) [10]: −55.00 (NC) %
HSS7 Percent change from baseline, Median [10]: −55.00%
HSS7, Mean (SD) [11]: 6.17 (5.40)
HSS7, Median [11]: 5.83
HSS7 Change from baseline, Mean (SD) [11]: −7.90 (6.07)
HSS7 Change from baseline, Median [11]: −8.00
HSS7 Percent change from baseline, Mean (SD) [11]: −55.30 (37.59) %
HSS7 Percent change from baseline, Median [11]: −61.11%
HSS7, Mean (SD) [12]: 2.67 (4.84)
HSS7, Median [12]: 0.00
HSS7 Change from baseline, Mean (SD) [12]: −13.36 (7.26)
HSS7 Change from baseline, Median [12]: −13.00
HSS7 Percent change from baseline, Mean (SD) [12]: −82.14 (27.76) %
HSS7 Percent change from baseline, Median [12]: −100.00%
HSS7, Mean (SD) [13]: 7.52 (7.21)
HSS7, Median [13]: 7.00
HSS7 Change from baseline, Mean (SD) [13]: −7.09 (6.54)
HSS7 Change from baseline, Median [13]: −4.50
HSS7 Percent change from baseline, Mean (SD) [13]: −49.56 (40.81) %
HSS7 Percent change from baseline, Median [13]: −37.50%
HSS7, Mean (SD) [14]: 4.25 (8.50)
HSS7, Median [14]: 0.00
HSS7 Change from baseline, Median [14]: −14.50
HSS7 Percent change from baseline, Mean (SD) [14]: −75.00 (50.00) %
HSS7 Percent change from baseline, Median [14]: −100.00%
HSS7, Median [15]: 8.58
HSS7 Change from baseline, Mean (SD) [15]: −4.85 (5.63)
HSS7 Change from baseline, Median [15]: −4.00
HSS7 Percent change from baseline, Mean (SD) [15]: −31.20 (34.88) %
HSS7 Percent change from baseline, Median [15]: −33.18%
HSS7, Mean (SD) [16]: 9.00 (NC)
HSS7, Median [16]: 9.00
HSS7 Change from baseline, Mean (SD) [16]: −11.00 (NC)
HSS7 Change from baseline, Median [16]: −11.00
HSS7 Percent change from baseline, Mean (SD) [16]: −55.00 (NC) %
HSS7 Percent change from baseline, Median [16]: −55.00%
HSS7, Mean (SD) [17]: 5.23 (4.86)
HSS7, Median [17]: 4.08
HSS7 Change from baseline, Mean (SD) [17]: −8.77 (5.84)
HSS7 Change from baseline, Median [17]: −8.00
HSS7 Percent change from baseline, Mean (SD) [17]: −60.93 (34.27) %
HSS7 Percent change from baseline, Median [17]: −64.29%
HSS7, Mean (SD) [18]: 3.20 (5.22)
HSS7, Median [18]: 0.00
HSS7 Change from baseline, Mean (SD) [18]: −14.40 (7.60)
HSS7 Change from baseline, Median [18]: −17.00
HSS7 Percent change from baseline, Mean (SD) [18]: −78.57 (29.45) %
HSS7 Percent change from baseline, Median [18]: −100.00%
